Data taken from patent US12419307B2, “Mixtures comprising indazole pesticides” (FMC Corporation, priority 2019, dated 2025).
Read-outs that look alike come from different tables or passages of the source.

Key:
Assay type in all cases: in vivo
[1] = system: silverleaf whitefly (Bemisia argentifolii Bellows and Perring); assay: Test A: silverleaf whitefly control on cotton or soybean plants, spray, insect mortality after 13 days; conditions: Bemisia argentifolii, applied alone, read-out: % Mortality (obs)
Method in brief: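 Cotton (12–14-day) or soybean (5–7-day) plants carrying whitefly eggs were sprayed with compound in 10% acetone/water with non-ionic surfactant. Plants were held 13 days at 28°C and 50–70% RH; mortality was averaged over three replicates. Mixture enhancement was judged against Colby-expected values.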

[2] = system: Western Flower Thrips (Frankliniella occidentalis Pergande); assay: Test B: Western Flower Thrips control on bean plants, plant damage rating converted to % plant protection after 7 days; conditions: for pest or weed control at 0.4 ppm / pest or weed control at 2 ppm / pest or weed control at 1.5 ppm / pest or weed control at 4.5 ppm: Frankliniella occidentalis, 168 h, read-out: Plant Protection (obs); for Plant Damage (obs): Table 3a; for Plant Damage (obs) / Plant Protection (obs): applied alone
Method in brief: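 Sprayed 5- to 7-day-old bean (var. Soleil) plants, 3 replicates, dried 1 h, then infested with 22 to 27 adult thrips and held 7 days at 25° C, 45-55% RH. Feeding damage rated 0-10 and converted as 100−(rating×10) to % plant protection.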

[3] = system: cotton melon aphid (Aphis gossypii Glover); assay: Test D: cotton melon aphid control on okra plants, insect mortality after 6 days; conditions: Aphis gossypii, read-out: % Mortality (obs)
Method in brief: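 Okra plants (6–7 days old) pre-infested with 30–40 aphids by cut-leaf transfer were sprayed, three replicates, then held 6 days at 19-21° C and 50-70% RH before mortality scoring. Mixture enhancement was judged against Colby-expected % mortality.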

O=C(NC1(C(F)F)CC1)c1cccc2nn(-c3cccnc3)cc12 [Cpd 5, N-[1-(difluoromethyl)cyclopropyl]-2-(3-pyridinyl)-2H-indazole-4-carboxamide]
mortality at 50 ppm ([1]; 2 h, Table 2h): 0%
mortality at 250 ppm ([1]; 2 h, Table 2h): 6.9%
mortality at 50 ppm ([1]; 48 h, Table 2d): 8.9%
mortality at 250 ppm ([1]; 48 h, Table 2d): 11.7%
mortality at 50 ppm ([1]; Table 2a): 17%
mortality at 250 ppm ([1]; Table 2a): 13.5%
mortality at 50 ppm ([1]; Table 2b): 49%
mortality at 250 ppm ([1]; Table 2b): 19.2%
mortality at 50 ppm ([1]; Table 2c): 56.5%
mortality at 250 ppm ([1]; Table 2c): 41.1%
mortality at 50 ppm ([1]; Table 2e): 56.3%
mortality at 250 ppm ([1]; Table 2e): 11.2%
mortality at 50 ppm ([1]; Table 2f): 84.4%
mortality at 250 ppm ([1]; Table 2f): 55.1%
mortality at 50 ppm ([1]; Table 2g): 30%
mortality at 250 ppm ([1]; Table 2g): 73.4%
mortality at 50 ppm ([1]; Table 2i): 0%
mortality at 250 ppm ([1]; Table 2i): 0%
pest or weed control at 0.4 ppm ([2]; Table 3e, 0.4 ppm): 70%
pest or weed control at 2 ppm ([2]; Table 3e, 2 ppm): 26.7%
pest or weed control at 0.4 ppm ([2]; Table 3f, 0.4 ppm): 33.3%
pest or weed control at 2 ppm ([2]; Table 3f, 2 ppm): 60%
pest or weed control at 0.4 ppm ([2]; Table 3g, 0.4 ppm): 13.3%
pest or weed control at 2 ppm ([2]; Table 3g, 2 ppm): 26.7%
pest or weed control at 0.4 ppm ([2]; Table 3d, 0.4 ppm): 43.3%
pest or weed control at 2 ppm ([2]; Table 3d, 2 ppm): 63.3%
Plant Damage (obs) ([2]; 0.4 ppm): 20.0%
Plant Damage (obs) ([2]; 2 ppm): 40.0%
Plant Protection (obs) ([2]; Table 3b, 0.4 ppm): 23.3%
Plant Protection (obs) ([2]; Table 3b, 2 ppm): 36.7%
Plant Protection (obs) ([2]; Table 3c, 0.4 ppm): 16.7%
Plant Protection (obs) ([2]; Table 3c, 2 ppm): 40.0%
mortality at 0.12 ppm ([3]; 5 h, Table 5h): 40%
mortality at 0.18 ppm ([3]; 5 h, Table 5h): 68.4%
mortality at 0.12 ppm ([3]; 120 h, Table 5d): 34%
mortality at 0.18 ppm ([3]; 120 h, Table 5d): 62.7%
mortality at 0.12 ppm ([3]; Table 5a): 34%
mortality at 0.18 ppm ([3]; Table 5a): 62.7%
mortality at 0.12 ppm ([3]; Table 5b): 34%
mortality at 0.18 ppm ([3]; Table 5b): 62.7%
mortality at 0.12 ppm ([3]; Table 5c): 73.3%
mortality at 0.18 ppm ([3]; Table 5c): 6.7%
mortality at 0.12 ppm ([3]; Table 5e): 32.2%
mortality at 0.18 ppm ([3]; Table 5e): 61.6%
mortality at 0.12 ppm ([3]; Table 5f): 44.9%
mortality at 0.18 ppm ([3]; Table 5f): 58.9%
mortality at 0.12 ppm ([3]; Table 5g): 25.8%
mortality at 0.18 ppm ([3]; Table 5g): 44.3%
mortality at 0.12 ppm ([3]; Table 5i): 41.6%
mortality at 0.18 ppm ([3]; Table 5i): 70.3%
mortality at 0.12 ppm ([3]; Table 5j): 41.6%
mortality at 0.18 ppm ([3]; Table 5j): 70.3%
mortality at 0.12 ppm ([3]; Table 5k): 35.9%
mortality at 0.18 ppm ([3]; Table 5k): 67.2%
mortality at 0.12 ppm ([3]; Table 5l): 35.9%
mortality at 0.18 ppm ([3]; Table 5l): 67.2%
mortality at 0.12 ppm ([3]; Table 5m): 37.3%
mortality at 0.18 ppm ([3]; Table 5m): 61.7%
mortality at 0.12 ppm ([3]; Table 5n): 48.9%
mortality at 0.18 ppm ([3]; Table 5n): 77.7%

C[S+]([O-])CC(C)(C)NC(=O)c1ccc(F)c2nn(-c3cccnc3)cc12 (stereo not shown) [Cpd 2, N-[1,1-dimethyl-2-(methylsulfinyl)ethyl]-7-fluoro-2-(3-pyridinyl)-2H-indazole-4-carboxamide]
mortality at 50 ppm ([1]; 2 h, Table 2h): 0%
mortality at 250 ppm ([1]; 2 h, Table 2h): 2.9%
mortality at 50 ppm ([1]; 48 h, Table 2d): 7.5%
mortality at 250 ppm ([1]; 48 h, Table 2d): 28%
mortality at 50 ppm ([1]; Table 2a): 10.9%
mortality at 250 ppm ([1]; Table 2a): 74.5%
mortality at 50 ppm ([1]; Table 2b): 80%
mortality at 250 ppm ([1]; Table 2b): 53.3%
mortality at 50 ppm ([1]; Table 2c): 11.8%
mortality at 250 ppm ([1]; Table 2c): 75.4%
mortality at 50 ppm ([1]; Table 2e): 17.8%
mortality at 250 ppm ([1]; Table 2e): 90.2%
mortality at 50 ppm ([1]; Table 2f): 15.7%
mortality at 250 ppm ([1]; Table 2f): 90.6%
mortality at 50 ppm ([1]; Table 2g): 31.1%
mortality at 250 ppm ([1]; Table 2g): 91.7%
pest or weed control at 1.5 ppm ([2]; Table 3e, 1.5 ppm): 66.7%
pest or weed control at 4.5 ppm ([2]; Table 3e, 4.5 ppm): 43.3%
pest or weed control at 1.5 ppm ([2]; Table 3f, 1.5 ppm): 43.3%
pest or weed control at 4.5 ppm ([2]; Table 3f, 4.5 ppm): 73.3%
pest or weed control at 1.5 ppm ([2]; Table 3g, 1.5 ppm): 16.7%
pest or weed control at 4.5 ppm ([2]; Table 3g, 4.5 ppm): 33.3%
pest or weed control at 1.5 ppm ([2]; Table 3d, 1.5 ppm): 36.7%
pest or weed control at 4.5 ppm ([2]; Table 3d, 4.5 ppm): 76.7%
Plant Damage (obs) ([2]; 1.5 ppm): 13.3%
Plant Damage (obs) ([2]; 4.5 ppm): 56.7%
Plant Protection (obs) ([2]; Table 3b, 1.5 ppm): 16.7%
Plant Protection (obs) ([2]; Table 3b, 4.5 ppm): 83.3%
Plant Protection (obs) ([2]; Table 3c, 1.5 ppm): 43.3%
Plant Protection (obs) ([2]; Table 3c, 4.5 ppm): 80.0%
mortality at 0.05 ppm ([3]; 5 h, Table 5h): 43.9%
mortality at 0.18 ppm ([3]; 5 h, Table 5h): 57.5%
mortality at 0.05 ppm ([3]; 120 h, Table 5d): 40.1%
mortality at 0.18 ppm ([3]; 120 h, Table 5d): 31.4%
mortality at 0.05 ppm ([3]; Table 5a): 40.1%
mortality at 0.18 ppm ([3]; Table 5a): 31.4%
mortality at 0.05 ppm ([3]; Table 5b): 40.1%
mortality at 0.18 ppm ([3]; Table 5b): 31.4%
mortality at 0.05 ppm ([3]; Table 5c): 0%
mortality at 0.18 ppm ([3]; Table 5c): 80%
mortality at 0.05 ppm ([3]; Table 5e): 16.3%
mortality at 0.18 ppm ([3]; Table 5e): 37%
mortality at 0.05 ppm ([3]; Table 5f): 17.1%
mortality at 0.18 ppm ([3]; Table 5f): 37.2%
mortality at 0.05 ppm ([3]; Table 5g): 23.4%
mortality at 0.18 ppm ([3]; Table 5g): 38.3%
